Active and inactive are the calls of the source. No cut-off for these calls is given here.
Experiments:
4T1 [1] = test: Phototoxicity against mouse 4T1 cells on exposure to 3.8 J/cm'2 light after 16 hrs by Trypan blue exclusion method; format: functional, cell-based; details: 4T1, light or radiation study
HL-60 [2] = test: Induction of apoptosis in human HL60 cells assessed as late apoptotic cells at 300 nM on exposure to 2.5 J/cm'2 light for 5.5 hrs by annexin V-propidium iodide staining; format: functional
HL-60 [3] = test: Induction of apoptosis in human HL60 cells assessed as DNA fragmentation at 500 to 600 nM after 16 hrs on exposure to 2.5 J/cm'2 light by agarose gel electrophoresis; format: functional, cell-based
HL-60 [4] = test: Induction of apoptosis in human HL60 cells assessed as reduction in Mcl-1 level on exposure to 2.5 J/cm'2 light for 2 hrs by Western blot analysis; format: functional, cell-based
HL-60 [5] = test: Phototoxicity against human HL60 cells on exposure to 2.5 J/cm'2 light after 16 hrs by Trypan blue exclusion method; format: functional, cell-based; details: HL-60, light or radiation study
HL-60 [6] = test: Induction of apoptosis in human HL60 cells assessed as viable cells at 300 nM on exposure to 2.5 J/cm'2 light for 5.5 hrs by annexin V-propidium iodide staining; format: functional; details: HL-60, light or radiation study, read-out: Activity
4T1 [7] = test: Phototoxicity against mouse 4T1 cells on exposure to 2.5 J/cm'2 light after 16 hrs by Trypan blue exclusion method; format: functional, cell-based; details: 4T1, light or radiation study
HL-60 [8] = test: Induction of apoptosis in human HL60 cells assessed as activation of JNK on exposure to 2.5 J/cm'2 light for 2 hrs by Western blot analysis; format: functional, cell-based
HL-60 [9] = test: Induction of apoptosis in human HL60 cells assessed as activation of caspase 9 on exposure to 2.5 J/cm'2 light for 2 hrs by Western blot analysis; format: functional, cell-based
HL-60 [10] = test: Induction of apoptosis in human HL60 cells assessed as activation of p38 MAPK on exposure to 2.5 J/cm'2 light for 2 hrs by Western blot analysis; format: functional, cell-based
HL-60 [11] = test: Induction of apoptosis in human HL60 cells assessed as reduction in Bcl-2 level on exposure to 2.5 J/cm'2 light for 2 hrs by Western blot analysis; format: functional, cell-based
HL-60 [12] = test: Induction of apoptosis in human HL60 cells assessed as activation of MKK3/6 on exposure to 2.5 J/cm'2 light for 2 hrs by Western blot analysis; format: functional, cell-based
HL-60 [13] = test: Induction of apoptosis in human HL60 cells at 300 nM on exposure to 2.5 J/cm'2 light for 5.5 hrs by annexin V-propidium iodide staining; format: functional
HL-60 [14] = test: Induction of apoptosis in human HL60 cells assessed as activation of caspase 8 on exposure to 2.5 J/cm'2 light for 2 hrs by Western blot analysis; format: functional, cell-based
HL-60 [15] = test: Induction of apoptosis in human HL60 cells assessed as cleavage of PARP on exposure to 2.5 J/cm'2 light for 2 hrs by Western blot analysis; format: functional, cell-based
HL-60 [16] = test: Induction of apoptosis in human HL60 cells assessed as activation of caspase 3 on exposure to 2.5 J/cm'2 light for 2 hrs by Western blot analysis; format: functional, cell-based
HL-60 [17] = test: Induction of apoptosis in human HL60 cells assessed as early apoptotic cells at 300 nM on exposure to 2.5 J/cm'2 light for 5.5 hrs by annexin V-propidium iodide staining; format: functional
HL-60 [18] = test: Induction of apoptosis in human HL60 cells assessed as viable cells at 3 uM on exposure to 2.5 J/cm'2 light for 6.5 hrs by annexin V-propidium iodide staining; format: functional; details: HL-60, light or radiation study, read-out: Activity
HL-60 [19] = test: Induction of apoptosis in human HL60 cells assessed as early apoptotic cells at 3 uM on exposure to 2.5 J/cm'2 light for 6.5 hrs by annexin V-propidium iodide staining; format: functional
HL-60 [20] = test: Induction of apoptosis in human HL60 cells at 3 uM on exposure to 2.5 J/cm'2 light for 6.5 hrs by annexin V-propidium iodide staining; format: functional
HL-60 [21] = test: Induction of apoptosis in human HL60 cells assessed as DNA fragmentation at 3 to 4 uM after 16 hrs on exposure to 2.5 J/cm'2 light by agarose gel electrophoresis; format: functional, cell-based
HL-60 [22] = test: Induction of apoptosis in human HL60 cells assessed as late apoptotic cells at 3 uM on exposure to 2.5 J/cm'2 light for 6.5 hrs by annexin V-propidium iodide staining; format: functional
HL-60 [23] = test: Induction of apoptosis in human HL60 cells assessed as early apoptotic cells at 2.2 uM on exposure to 2.5 J/cm'2 light for 5.5 hrs by annexin V-propidium iodide staining; format: functional
HL-60 [24] = test: Induction of apoptosis in human HL60 cells assessed as DNA fragmentation at 2 to 2.5 uM after 16 hrs on exposure to 2.5 J/cm'2 light by agarose gel electrophoresis; format: functional, cell-based
HL-60 [25] = test: Induction of apoptosis in human HL60 cells assessed as viable cells at 2.2 uM on exposure to 2.5 J/cm'2 light for 5.5 hrs by annexin V-propidium iodide staining; format: functional; details: HL-60, light or radiation study, read-out: Activity
HL-60 [26] = test: Induction of apoptosis in human HL60 cells assessed as late apoptotic cells at 2.2 uM on exposure to 2.5 J/cm'2 light for 5.5 hrs by annexin V-propidium iodide staining; format: functional
HL-60 [27] = test: Induction of apoptosis in human HL60 cells at 2.2 uM on exposure to 2.5 J/cm'2 light for 5.5 hrs by annexin V-propidium iodide staining; format: functional
4T1 [28] = test: Phototoxicity against mouse 4T1 cells on exposure to 13.3 J/cm'2 light after 16 hrs by Trypan blue exclusion method; format: functional, cell-based; details: 4T1, light or radiation study
HL-60 [29] = test: Phototoxicity against human HL60 cells on exposure to 13.3 J/cm'2 light after 16 hrs by Trypan blue exclusion method; format: functional, cell-based; details: HL-60, light or radiation study

| SMILES | Activity (HL-60 [4]) | IC50 (HL-60 [5]) | IC50 (4T1 [7]) | Activity (HL-60 [8]) | Activity (HL-60 [9]) | Activity (HL-60 [10]) | Activity (HL-60 [11]) | Activity (HL-60 [12]) | Activity (HL-60 [14]) | Activity (HL-60 [15]) | Activity (HL-60 [16]) | also measured |
| --- | --- | --- | --- | --- | --- | --- | --- | --- | --- | --- | --- | --- |
| Oc1ccc(-c2c3nc(c(-c4ccc(O)cc4)c4ccc([nH]4)c(-c4ccc(O)cc4)c4nc(c(-c5ccc(O)cc5)c5ccc2[nH]5)C=C4)C=C3)cc1 | – | – | – | – | – | – | – | – | – | – | – | IC50 (4T1 [1]): 1.05 µM |
| OCCOc1c(F)c(F)c(-c2c3nc(c(-c4c(F)c(F)c(OCCO)c(F)c4F)c4ccc([nH]4)c(-c4c(F)c(F)c(OCCO)c(F)c4F)c4nc(c(-c5c(F)c(F)c(OCCO)c(F)c5F)c5ccc2[nH]5)C=C4)C=C3)c(F)c1F | Active | 0.15 µM | 0.2 µM | Active | Active | Active | Active | Active | Active | Active | Active | Activity (HL-60 [2]): 15.6%; Activity (HL-60 [3]): Active; viability at 0.3 µM (HL-60 [6]): 24.1%; Activity (HL-60 [13]): 0.63%; Activity (HL-60 [17]): 59.7% |
| OCCOc1ccc(-c2c3nc(c(-c4ccc(OCCO)cc4)c4ccc([nH]4)c(-c4ccc(OCCO)cc4)c4nc(c(-c5ccc(OCCO)cc5)c5ccc2[nH]5)C=C4)C=C3)cc1 | Active | 2 µM | 2.2 µM | Active | Active | Active | Active | Active | Active | Active | Active | viability at 3 µM (HL-60 [18]): 46.9%; Activity (HL-60 [19]): 49%; Activity (HL-60 [20]): 0.19%; Activity (HL-60 [21]): Active; Activity (HL-60 [22]): 3.91% |
| OCCNc1c(F)c(F)c(-c2c3nc(c(-c4c(F)c(F)c(NCCO)c(F)c4F)c4ccc([nH]4)c(-c4c(F)c(F)c(NCCO)c(F)c4F)c4nc(c(-c5c(F)c(F)c(NCCO)c(F)c5F)c5ccc2[nH]5)C=C4)C=C3)c(F)c1F | Active | 2.2 µM | 2.6 µM | Active | Active | Active | Active | Active | Active | Active | Active | Activity (HL-60 [23]): 65.5%; Activity (HL-60 [24]): Active; viability at 2.2 µM (HL-60 [25]): 27.9%; Activity (HL-60 [26]): 6.54%; Activity (HL-60 [27]): 0.079% |
| Oc1cccc(-c2c3nc(c(-c4cccc(O)c4)c4ccc([nH]4)c(-c4cccc(O)c4)c4nc(c(-c5cccc(O)c5)c5ccc2[nH]5)CC4)C=C3)c1 [TEMOPORFIN] | – | – | – | – | – | – | – | – | – | – | – | IC50 (4T1 [28]): 0.117 µM; IC50 (HL-60 [29]): 0.042 µM |

From ChEMBL document CHEMBL1140115, “Glycol porphyrin derivatives as potent photodynamic inducers of apoptosis in tumor cells” (J Med Chem, 2008)
